Data on 19 molecules can be found in US11299485B2, “Thiophene derivative and use thereof” (FUJIMOTO CO., LTD., priority 2018, dated 2022).

Holding throughout (assay type): cell-based
In one series the test system is Kasumi-7 cells. The series is described as follows: Human acute lymphoblastic leukemia cell line Kasumi-7 proliferation suppression test. The settings on record: 72 h, compound 10 μM, 3 days, WST-8, read-out: cell survival rate (% of control) Kasumi-7. From the text: Example 55: Human Acute Lymphoblastic Leukemia Cell Line Kasumi-7 Proliferation Suppression Test
Kasumi-7 cells (NIBIOHN, JCRB1401) were suspended in 20% fetal calf serum (Thermo Fisher Scientific, Inc.)-containing RPMI1640 medium (ATCC, hereinafter abbreviated as medium C), and diluted as appropriate with 0.4% trypan blue solution (Sigma-Aldrich Co. LLC.). The number of viable cells was counted with a hemocytometer (Funakoshi Co., Ltd.). A cell suspension obtained by diluting with medium C such that the value obtained was 1.3×10^5 cells/mL was dispensed into a Falcon 96 well flat bottom plate (Corning Incorporated) at 75 μL/well, and culture was started at 37° C. under 5% CO2 stream. The next day, a solution obtained by diluting 4 mM DMSO solution of the test compound 100-fold with medium C was added by 25 μL to each well (final concentration of test compound 10 μM). 25 μL of a solution obtained by diluting DMSO 100-fold with medium C was added to the control well. After culturing at 37° C. in a 5% CO2 stream for 3 days, the cell proliferation activity was measured according to the instruction manual attached to WST-8 Kit (KISHIDA CHEMICAL Co., Ltd.).
For orientation: Tetrazolium assays rely on reduction of a dye to a coloured formazan, in cell work by metabolically active cells.

A further series deals with Daudi cells. The series is described as follows: Human Burkitt lymphoma cell line Daudi proliferation suppression test. The settings on record: 72 h, compound 10 μM, 3 days, WST-8, read-out: cell survival rate (% of control) Daudi. From the text:
Example 54: Human Burkitt Lymphoma Cell Line Daudi Proliferation Suppression Test
Daudi cells (National Institutes of Biomedical Innovation, Health and Nutrition (NIBIOHN), JCRB9071) were suspended in medium B, and diluted as appropriate with 0.4% trypan blue solution (Sigma-Aldrich Co. LLC.). The number of viable cells was counted with a hemocytometer (ERMA INC.). A cell suspension obtained by diluting with medium B such that the value obtained was 1.3×10^5 cells/mL was dispensed into a Falcon 96 well flat bottom plate (Corning Incorporated) at 75 μL/well, and culture was started at 37° C. under 5% CO2 stream. The next day, a solution obtained by diluting 4 mM DMSO solution of the test compound 100-fold with medium B was added by 25 μL to each well (final concentration of test compound 10 μM). 25 μL of a solution obtained by diluting DMSO 100-fold with medium B was added to the control well. After culturing at 37° C. in a 5% CO2 stream for 3 days, the cell proliferation activity was measured according to the instruction manual attached to WST-8 Kit (KISHIDA CHEMICAL Co., Ltd.).

In series [1] the test system is human peripheral blood mononuclear cells (PBMC). The series can be described thus: Cytotoxicity test using human peripheral blood mononuclear cells (PBMC). To be noted: compound 10 μg/mL, LPS, 24 hr, WST-1 or WST-8. Here is the method:
Example 56: Cytotoxicity Test Using Human Peripheral Blood Mononuclear Cells (PBMC)
Peripheral blood of a healthy adult was collected in a Venoject II vacuum blood collection tube (Terumo, containing EDTA/2Na), and then diluted two-fold with an equal volume of OTSUKA NORMAL SALINE (Otsuka Pharmaceutical Co., Ltd.). The diluted blood was mixed with Lymphoprep (AXIS-SHIELD) in half the volume of the diluted blood, dispensed into a 15 mL conical tube, and centrifuged at room temperature for 20 min (2,100 rpm). The mononuclear cells accumulated at the interface between Lymphoprep and plasma was transferred to a 50 mL conical tube, diluted with OTSUKA NORMAL SALINE, and the mononuclear cells suspension was centrifuged at room temperature for 10 min (1,150 rpm) and then the supernatant was removed. The mononuclear cells fraction obtained as a precipitate was suspended in an appropriate amount of medium A, and diluted as appropriate with 0.4% trypan blue solution (Sigma-Aldrich Co. LLC.). The number of viable cells was counted with a hemocytometer (ERMA INC.). It was diluted with medium A such that the value obtained was 5×10^5 cells/mL. On the other hand, 37.5 μL of medium A, 2.5 μL of 0.4 mg/mL test compound solution (DMSO solution 10-fold diluted with medium A), and 10 μL of 10 μg/mL lipopolysaccharide (Sigma-Aldrich Co. LLC.) solution (diluted with medium A) were each added in advance to the same well of a Falcon 96-well flat bottom plate (Corning Incorporated), and the above-mentioned cell suspension was dispensed at 50 μL/well (final concentration of test compound 10 μg/mL). 2.5 μL of DMSO diluted 10-fold with medium A was added to the control well instead of the compound solution. After culturing at 37° C. in a 5% CO2 stream for 24 hr, the cell survival rate was measured using WST-1 (DOJINDO LABORATORIES) or WST-8 kit (KISHIDA CHEMICAL Co., Ltd.) and according to each instruction manual attached thereto.

For `O=C1CCC(n2cc(-c3cscc3OCc3cccnc3)nn2)C(=O)N1` (stereo not drawn) [compound 35, 3-{4-[4-(pyridin-3-ylmethoxy)thiophen-3-yl]-1H-1,2,3-triazol-1-yl}piperidine-2,6-dione], the viability at 10 µM in the series with Kasumi-7 cells worked out at 53%; in the series with Daudi cells it was 67%. The “cell survival rate (% of control) PBMC” value in series [1] is recorded as 100 % of control.

With `C[C@@H]1CN(Cc2ccc(COc3cscc3-c3cn(C4CCC(=O)NC4=O)nn3)cc2)C[C@H](C)O1` (stereo partly drawn) [compound 38, 3-{4-[4-(4-{[(2S,6R)-2,6-dimethylmorpholino]methyl}benzyloxy)thiophen-3-yl]-1H-1,2,3-triazol-1-yl}piperidine-2,6-dione], the figures for the viability at 10 µM in the series with Kasumi-7 cells and in the series on Daudi cells were 23% and 7%, respectively. In series [1], the “cell survival rate (% of control) PBMC” value is reported as 110 % of control.

Consider `CCOc1cscc1-c1cn(C2CCC(=O)NC2=O)nn1` (stereo not drawn) [compound 17, 3-[4-(4-ethoxythiophen-3-yl)-1H-1,2,3-triazol-1-yl]piperidine-2,6-dione], for which the viability at 10 µM in the series with Kasumi-7 cells stood at 48%; in the series with Daudi cells, 50%. The “cell survival rate (% of control) PBMC” value in series [1] is given as 49 % of control.

For the molecule `O=C1CCC(n2cc(-c3cscc3OCc3ccc(Cl)cc3)nn2)C(=O)N1` (stereo not drawn) [compound 43, 3-{4-[4-(4-chlorobenzyloxy)thiophen-3-yl]-1H-1,2,3-triazol-1-yl}piperidine-2,6-dione], the viability at 10 µM came to 42% with Kasumi-7 cells and 36% in the series on Daudi cells. Also, in series [1], the “cell survival rate (% of control) PBMC” value is given as 98 % of control.

With `COc1c(-c2cn(C3CCC(=O)NC3=O)nn2)csc1Br` (stereo not drawn) [compound 23, 3-[4-(5-bromo-4-methoxythiophen-3-yl)-1H-1,2,3-triazol-1-yl]piperidine-2,6-dione], the viability at 10 µM with Kasumi-7 cells and with Daudi cells was 76% each time. For the same molecule, the “cell survival rate (% of control) PBMC” value in series [1] is on record as 104 % of control.

Take `O=C1CCC(n2cc(-c3scc4c3OCCO4)nn2)C(=O)N1` (stereo not drawn) [compound 10, 3-[4-(2,3-dihydrothieno[3,4-b][1,4]dioxin-5-yl)-1H-1,2,3-triazol-1-yl]piperidine-2,6-dione]: the results for the viability at 10 µM in the series on Kasumi-7 cells and in the series on Daudi cells were 72% and 85%, respectively. Further, the “cell survival rate (% of control) PBMC” value in series [1] is reported as 97 % of control.

Take `O=C1CCC(n2cc(-c3ccc(Cl)s3)nn2)C(=O)N1` (stereo not drawn) [compound 11, 3-[4-(5-chlorothiophen-2-yl)-1H-1,2,3-triazol-1-yl]piperidine-2,6-dione]: the viability at 10 µM turned out to be 78% in the series with Kasumi-7 cells and 94% in the series on Daudi cells. Besides, in series [1], the “cell survival rate (% of control) PBMC” value is 115 % of control.

With `Cc1ccc(-c2cn(C3CCC(=O)NC3=O)nn2)s1` (stereo not drawn) [compound 5, 3-[4-(5-methylthiophen-2-yl)-1H-1,2,3-triazol-1-yl]piperidine-2,6-dione], the viability at 10 µM in the series with Kasumi-7 cells was found to be 72%; in the series with Daudi cells, 82%. For the same molecule, in series [1], the “cell survival rate (% of control) PBMC” value was 97 % of control.

For `Cl.O=C1CCC(n2cc(-c3cscc3OCc3ccc(CCN4CCOCC4)cc3)nn2)C(=O)N1` (stereo not drawn) [compound 45, 3-(4-{4-[4-(2-morpholinoethyl)benzyloxy]thiophen-3-yl}-1H-1,2,3-triazol-1-yl)piperidine-2,6-dione hydrochloride], the viability at 10 µM with Kasumi-7 cells turned out to be 39%; with Daudi cells, 40%. Moreover, the “cell survival rate (% of control) PBMC” value in series [1] is listed as 110 % of control.

In the case of `O=C1CCC(n2nnc(-c3ccsc3)c2Cl)C(=O)N1` (stereo not drawn) [compound 4, 3-[5-chloro-4-(thiophen-3-yl)-1H-1,2,3-triazol-1-yl]piperidine-2,6-dione], the figures for the viability at 10 µM in the series with Kasumi-7 cells and in the series on Daudi cells were 91% and 82%, respectively. Also, the “cell survival rate (% of control) PBMC” value in series [1] is given as 112 % of control.

Take `CC(C)Oc1cscc1-c1cn(C2CCC(=O)NC2=O)nn1` (stereo not drawn) [compound 26, 3-[4-(4-isopropoxythiophen-3-yl)-1H-1,2,3-triazol-1-yl]piperidine-2,6-dione]: the viability at 10 µM in the series on Kasumi-7 cells was 50%; with Daudi cells, 51%. In series [1], the “cell survival rate (% of control) PBMC” value was 42 % of control.

As for `CC(Oc1cscc1-c1cn(C2CCC(=O)NC2=O)nn1)c1ccccc1` (stereo not drawn) [compound 44, 3-{4-[4-(1-phenylethoxy)thiophen-3-yl]-1H-1,2,3-triazol-1-yl}piperidine-2,6-dione], the viability at 10 µM stood at 40% in the series on Kasumi-7 cells and 41% with Daudi cells. Further, in series [1], the “cell survival rate (% of control) PBMC” value was 105 % of control.

Turning to `O=C1CCC(n2cc(-c3ccc(Br)s3)nn2)C(=O)N1` (stereo not drawn) [compound 12, 3-[4-(5-bromothiophen-2-yl)-1H-1,2,3-triazol-1-yl]piperidine-2,6-dione], the figures for the viability at 10 µM with Kasumi-7 cells and with Daudi cells were 89% and 87%, respectively. For the same molecule, the “cell survival rate (% of control) PBMC” value in series [1] is 101 % of control.

Consider `CCCCOc1cscc1-c1cn(C2CCC(=O)NC2=O)nn1` (stereo not drawn) [compound 25, 3-[4-(4-butoxythiophen-3-yl)-1H-1,2,3-triazol-1-yl]piperidine-2,6-dione], for which the values for the viability at 10 µM in the series with Kasumi-7 cells and in the series with Daudi cells were 73% and 68%, respectively. For the same molecule, the “cell survival rate (% of control) PBMC” value in series [1] was 118 % of control.

Regarding `COc1cc(-c2cn(C3CCC(=O)NC3=O)nn2)cs1` (stereo not drawn) [compound 20, 3-[4-(5-methoxythiophen-3-yl)-1H-1,2,3-triazol-1-yl]piperidine-2,6-dione], the viability at 10 µM in the series on Kasumi-7 cells was 53%; in the series with Daudi cells, 55%. Also, the “cell survival rate (% of control) PBMC” value in series [1] is reported as 104 % of control.

As to `O=C1CCC(n2cc(-c3cscc3OCC3CCCCC3)nn2)C(=O)N1` (stereo not drawn) [compound 30, 3-{4-[4-(cyclohexylmethoxy)thiophen-3-yl]-1H-1,2,3-triazol-1-yl}piperidine-2,6-dione], the viability at 10 µM with Kasumi-7 cells amounted to 62%; with Daudi cells, 76%. Also, in series [1], the “cell survival rate (% of control) PBMC” value is reported as 70 % of control.

Regarding `O=C1CCC(n2cc(-c3cscc3OC3CCCC3)nn2)C(=O)N1` (stereo not drawn) [compound 27, 3-{4-[4-(cyclopentyloxy)thiophen-3-yl]-1H-1,2,3-triazol-1-yl}piperidine-2,6-dione], the viability at 10 µM in the series on Kasumi-7 cells worked out at 83%; in the series with Daudi cells, 70%. In series [1], the “cell survival rate (% of control) PBMC” value is given as 107 % of control.

On to `CN(C)Cc1ccc(COc2cscc2-c2cn(C3CCC(=O)NC3=O)nn2)cc1.Cl` (stereo not drawn) [compound 46, 3-[4-(4-{4-[(dimethylamino)methyl]benzyloxy}thiophen-3-yl)-1H-1,2,3-triazol-1-yl]piperidine-2,6-dione hydrochloride], for which the viability at 10 µM was 35% with Kasumi-7 cells and 29% in the series with Daudi cells. In series [1], the “cell survival rate (% of control) PBMC” value is reported as 110 % of control.

As to `O=C1CCC(n2cc(-c3cccs3)nn2)C(=O)N1` (stereo not drawn) [compound 3, 3-[4-(thiophen-2-yl)-1H-1,2,3-triazol-1-yl]piperidine-2,6-dione], the viability at 10 µM turned out to be 81% in the series on Kasumi-7 cells and 78% with Daudi cells. The “cell survival rate (% of control) PBMC” value in series [1] was 89 % of control.
